Laboratory results published in US4880817A, “O-functionalized derivatives of substituted isoquinolin-3-ols having cardiotonic and/or phosphodiesterase fraction III inhibiting properties and/or renal vasodilating properties” (Ortho Pharmaceutical Corporation, priority 1987, dated 1989).
Read-outs that look alike come from different tables or passages of the source.

Assays:
adult mongrel dogs [1] = test: Renal vasodilating activity in anesthetized dogs; format: in vivo, mongrel dog; conditions: Canis lupus familiaris
Description: Goldberg et al., J. Pharmacol. Exp. Ther., 163, 188 (1968), performed an investigation of the structural requirements for dopamine-like renal vasodilation of phenethylamines and apomorphine. The following procedure is a variation of the assay described in that report.
Adult mongrel dogs were anesthetized and surgically prepared for electromagnetic measurement of renal artery blood flow. A carotid artery was cannulated for measuring arterial blood pressure and drugs were administered intravenously or intraarterially (via the renal artery). Heart rate was monitored with a cardiotachometer. Renal vascular resistance was calculated as the ratio of mean arterial blood pressure to renal artery blood flow. Dopamine was infused intravenously at 3 μg/kg/min for ten minutes (at an infusion rate of about 1 ml/min) to determine responsiveness of each dog to renal dopamine receptor stimulation. Cumulative dose-response data were obtained by infusing a compound of this invention at progressively increasing (usually three-fold) infusion rates, each dose being infused for five minutes. The maximum percent change from pre-drug control in renal artery blood flow (or in renal vascular resistance) was determined for each infusion dose.
RBF, RVR, MABP, and HR values are percent changes in renal blood flow, renal vascular resistance, mean arterial blood pressure, and heart rate, respectively, relative to control values.

adult mongrel dogs [2] = test: Acute in vivo cardiotonic activity in anesthetized dogs; set-up: species or system mongrel dog; conditions: Canis lupus familiaris, iv, relative to controls; for change in vivo at 1.87 mg/kg: dose 1.87 mpk; for change in vivo at 0.875 mg/kg: dose 0.875 mpk; for change in vivo at 0.375 mg/kg: dose 0.375 mpk
Description: The acute in vivo cardiotonic activity of compounds prepared according to the present invention was determined according to a modification of the procedure described by Alousi et al., Circ.
In particular, adult mongrel dogs were anesthetized with sodium pentobarbital and were artificially respired. Arterial pressure was monitored via a femoral artery, and the pulse pressure was used to trigger a cardiotachometer for heart rate. Left ventricular pressure was determined with a Millar catheter, and dP/dT (the change in ventricular pressure with time) was derived. Cardiac output was determined by measuring ascending aortic blood flow with an electromagnetic flow probe, and myocardial contractile force was measured with a Walton Brodie strain gauge sutured to the right ventricle. Lead II EKG was also recorded.
A standard dose (10 μg/kg/min) of dopamine was administered to assess myocardial responsiveness.
Compounds of the invention were administered by intravenous infusion and the effects on cardiovascular parameters were determined.

[3] = dose 6.2 mpk, relative to controls, read-out: HR: percent change in heart rate
[4] = dose 6.2 mpk, relative to controls, read-out: MABP: percent change in mean arterial blood pressure
[5] = dose 6.2 mpk, relative to controls, read-out: RBF: percent change in renal blood flow
[6] = dose 6.2 mpk, relative to controls, read-out: RVR: percent change in renal vascular resistance
[7] = read-out: CF: percent change in cardiac force
[8] = read-out: HR: percent change in heart rate
[9] = read-out: MABP: percent change in mean arterial blood pressure
[10] = read-out: dP/dT: maximum percent change in left ventricular pressure with time
[11] = read-out: HR: percent change in heart rate, dose 6.2 mpk, relative to controls
[12] = read-out: MABP: percent change in mean arterial blood pressure, dose 6.2 mpk, relative to controls
[13] = read-out: RVR: percent change in renal vascular resistance, dose 6.2 mpk, relative to controls
[14] = read-out: RBF: percent change in renal blood flow, dose 6.2 mpk, relative to controls

In the case of `COc1cc2c(C)nc(OS(=O)(=O)N(C)C)c([N+](=O)[O-])c2cc1OC` [Cmpd 25], the change in vivo at 6.2 mg/kg (adult mongrel dogs [1]; [3]) is reported as 32%, the change in vivo at 6.2 mg/kg (adult mongrel dogs [1]; [4]) is reported as -12% and the change in vivo at 6.2 mg/kg (adult mongrel dogs [1]; [5]) is reported as 61%. The change in vivo at 6.2 mg/kg (adult mongrel dogs [1]; [6]) was -46%, the change in vivo at 1.87 mg/kg (adult mongrel dogs [2]; [7]) was 49% and the change in vivo at 1.87 mg/kg (adult mongrel dogs [2]; [8]) was 5%. For the same molecule, the change in vivo at 1.87 mg/kg (adult mongrel dogs [2]; [9]) was 12% and the change in vivo at 1.87 mg/kg (adult mongrel dogs [2]; [10]) was 61%.
`COc1cc2c(C)nc(OC(=O)N(C)C)c(N)c2cc1OC` [Cmpd 39] gave a change in vivo at 1.87 mg/kg (adult mongrel dogs [2]; [7]) of 76%, a change in vivo at 1.87 mg/kg (adult mongrel dogs [2]; [8]) of 16% and a change in vivo at 1.87 mg/kg (adult mongrel dogs [2]; [9]) of -1%. For the same molecule, the change in vivo at 1.87 mg/kg (adult mongrel dogs [2]; [10]) was 73%.
Work on `CCOc1cc2c([N+](=O)[O-])c(OC(=O)C(C)(C)C)nc(C)c2cc1OC` [Cmpd 23] yielded a change in vivo at 1.87 mg/kg (adult mongrel dogs [2]; [7]) of 27%, a change in vivo at 1.87 mg/kg (adult mongrel dogs [2]; [8]) of 5% and a change in vivo at 1.87 mg/kg (adult mongrel dogs [2]; [9]) of 3%. It also gave a change in vivo at 1.87 mg/kg (adult mongrel dogs [2]; [10]) of 24%.
Molecule `COc1cc2c(C)nc(OC(=O)C(C)(C)C)c([N+](=O)[O-])c2cc1OC` [Cmpd 12] has a change in vivo at 6.2 mg/kg (adult mongrel dogs [1]; [3]) of 12%, a change in vivo at 6.2 mg/kg (adult mongrel dogs [1]; [5]) of 38% and a change in vivo at 6.2 mg/kg (adult mongrel dogs [1]; [6]) of -26%. The change in vivo at 1.87 mg/kg (adult mongrel dogs [2]; [7]) was 70%, the change in vivo at 1.87 mg/kg (adult mongrel dogs [2]; [8]) was 14% and the change in vivo at 1.87 mg/kg (adult mongrel dogs [2]; [9]) was -10%. It also gave a change in vivo at 1.87 mg/kg (adult mongrel dogs [2]; [10]) of 51%.
With `CCN(CC)C(=O)Oc1nc(C)c2cc(OC)c(OC)cc2c1[N+](=O)[O-]` [Cmpd 27, 3-Diethylcarbamyloxy-6,7-dimethoxy-1-methyl-4-nitroisoquinoline] the change in vivo at 6.2 mg/kg (adult mongrel dogs [1]; [11]) was 13%, the change in vivo at 6.2 mg/kg (adult mongrel dogs [1]; [12]) was -12% and the change in vivo at 6.2 mg/kg (adult mongrel dogs [1]; [13]) was -30%. The change in vivo at 1.87 mg/kg (adult mongrel dogs [2]; [7]) was 87%, the change in vivo at 1.87 mg/kg (adult mongrel dogs [2]; [8]) was 46% and the change in vivo at 1.87 mg/kg (adult mongrel dogs [2]; [9]) was 17%. For the same molecule, the change in vivo at 1.87 mg/kg (adult mongrel dogs [2]; [10]) was 41%.
With `COc1cc2c(C)nc(OC(=O)c3ccccc3)c([N+](=O)[O-])c2cc1OC` [Cmpd 7] the change in vivo at 0.875 mg/kg (adult mongrel dogs [2]; [7]) was 59%, the change in vivo at 0.875 mg/kg (adult mongrel dogs [2]; [8]) was 4% and the change in vivo at 0.875 mg/kg (adult mongrel dogs [2]; [9]) was -10%. It also gave a change in vivo at 0.875 mg/kg (adult mongrel dogs [2]; [10]) of 34%.
With `CCOc1cc2c(C)nc(OC(=O)c3ccccc3)c([N+](=O)[O-])c2cc1OC` [Cmpd 8] the change in vivo at 0.375 mg/kg (adult mongrel dogs [2]; [7]) was 124%, the change in vivo at 0.375 mg/kg (adult mongrel dogs [2]; [8]) was 10% and the change in vivo at 0.375 mg/kg (adult mongrel dogs [2]; [9]) was -20%. For the same molecule, the change in vivo at 0.375 mg/kg (adult mongrel dogs [2]; [10]) was 54%.
`CCOc1cc2c(C)nc(OC(=O)CC)c([N+](=O)[O-])c2cc1OC` [Cmpd 4] showed a change in vivo at 0.375 mg/kg (adult mongrel dogs [2]; [7]) of 100%, a change in vivo at 0.375 mg/kg (adult mongrel dogs [2]; [8]) of 7% and a change in vivo at 0.375 mg/kg (adult mongrel dogs [2]; [9]) of -25%. It also gave a change in vivo at 0.375 mg/kg (adult mongrel dogs [2]; [10]) of 46%.
`CCOc1cc2c(C)nc(OC(=O)N(CC)CC)c([N+](=O)[O-])c2cc1OC` [Cmpd 28] was tested, and the change in vivo at 6.2 mg/kg (adult mongrel dogs [1]; [11]) was 5%, the change in vivo at 6.2 mg/kg (adult mongrel dogs [1]; [12]) was -18% and the change in vivo at 6.2 mg/kg (adult mongrel dogs [1]; [14]) was 50%. For the same molecule, the change in vivo at 6.2 mg/kg (adult mongrel dogs [1]; [13]) was -45%, the change in vivo at 0.875 mg/kg (adult mongrel dogs [2]; [7]) was 71% and the change in vivo at 0.875 mg/kg (adult mongrel dogs [2]; [8]) was 27%. For the same molecule, the change in vivo at 0.875 mg/kg (adult mongrel dogs [2]; [9]) was -4% and the change in vivo at 0.875 mg/kg (adult mongrel dogs [2]; [10]) was 70%.
Molecule `CCCC(=O)Oc1nc(C)c2cc(OC)c(OC)cc2c1[N+](=O)[O-]` [Cmpd 41] has a change in vivo at 1.87 mg/kg (adult mongrel dogs [2]; [7]) of 166%, a change in vivo at 1.87 mg/kg (adult mongrel dogs [2]; [8]) of 29% and a change in vivo at 1.87 mg/kg (adult mongrel dogs [2]; [9]) of -34%. For the same molecule, the change in vivo at 1.87 mg/kg (adult mongrel dogs [2]; [10]) was 62%.
`COc1cc2c(C)nc(OC(=O)N(C)C)c([N+](=O)[O-])c2cc1OC` [Cmpd 13] was tested, and the change in vivo at 6.2 mg/kg (adult mongrel dogs [1]; [11]) was 12%, the change in vivo at 6.2 mg/kg (adult mongrel dogs [1]; [12]) was -5% and the change in vivo at 6.2 mg/kg (adult mongrel dogs [1]; [14]) was 8%. The change in vivo at 6.2 mg/kg (adult mongrel dogs [1]; [13]) was -12%, the change in vivo at 1.87 mg/kg (adult mongrel dogs [2]; [7]) was 49% and the change in vivo at 1.87 mg/kg (adult mongrel dogs [2]; [8]) was 6%. For the same molecule, the change in vivo at 1.87 mg/kg (adult mongrel dogs [2]; [9]) was -8% and the change in vivo at 1.87 mg/kg (adult mongrel dogs [2]; [10]) was 24%.
Work on `COc1cc2c(C)nc(OC(=O)N(c3ccccc3)c3ccccc3)c(N)c2cc1OC` [Cmpd 36] yielded a change in vivo at 1.87 mg/kg (adult mongrel dogs [2]; [7]) of 26%, a change in vivo at 1.87 mg/kg (adult mongrel dogs [2]; [8]) of 9% and a change in vivo at 1.87 mg/kg (adult mongrel dogs [2]; [9]) of -1%. The change in vivo at 1.87 mg/kg (adult mongrel dogs [2]; [10]) was 26%.
Work on `CCCCNC(=O)Nc1c(OC(=O)N(CC)CC)nc(C)c2cc(OCC)c(OC)cc12` [Cmpd 45] yielded a change in vivo at 1.2 mg/kg (adult mongrel dogs [1]; read-out: HR: percent change in heart rate, dose 1.2 mpk, relative to controls) of 11%, a change in vivo at 1.2 mg/kg (adult mongrel dogs [1]; read-out: MABP: percent change in mean arterial blood pressure, dose 1.2 mpk, relative to controls) of 12% and a change in vivo at 1.2 mg/kg (adult mongrel dogs [1]; read-out: RBF: percent change in renal blood flow, dose 1.2 mpk, relative to controls) of 15%. The change in vivo at 1.2 mg/kg (adult mongrel dogs [1]; read-out: RVR: percent change in renal vascular resistance, dose 1.2 mpk, relative to controls) was -2%.
With `CCN(CC)c1c(OC(C)=O)nc(C)c2cc(OC)c(OC)cc12` [Cmpd 29, 3-Acetoxy-4-(N,N-diethylamino)-6,7-dimethoxy-1-methylisoquinoline 1/2 Hydrate] the change in vivo at 1.87 mg/kg (adult mongrel dogs [2]; [7]) was 79%, the change in vivo at 1.87 mg/kg (adult mongrel dogs [2]; [8]) was 13% and the change in vivo at 1.87 mg/kg (adult mongrel dogs [2]; [9]) was 6%. The change in vivo at 1.87 mg/kg (adult mongrel dogs [2]; [10]) was 58%.
With `CCCCCC(=O)Nc1c(OC(=O)N(CC)CC)nc(C)c2cc(OC)c(OC)cc12` [Cmpd 81] the change in vivo at 6.2 mg/kg (adult mongrel dogs [1]; [3]) was -8%, the change in vivo at 6.2 mg/kg (adult mongrel dogs [1]; [4]) was 9% and the change in vivo at 6.2 mg/kg (adult mongrel dogs [1]; [5]) was 39%. For the same molecule, the change in vivo at 6.2 mg/kg (adult mongrel dogs [1]; [6]) was -21%.
`CCC(=O)Nc1c(OC(=O)CC)nc(C)c2cc(OC)c(OC)cc12` [Cmpd 33, 6,7-Dimethoxy-1-methyl-4-[N-propanamido]-3-propanoyloxyisoquinoline] showed a change in vivo at 6.2 mg/kg (adult mongrel dogs [1]; [3]) of -9%, a change in vivo at 6.2 mg/kg (adult mongrel dogs [1]; [4]) of -9% and a change in vivo at 6.2 mg/kg (adult mongrel dogs [1]; [5]) of 41%. For the same molecule, the change in vivo at 6.2 mg/kg (adult mongrel dogs [1]; [6]) was -35%, the change in vivo at 1.87 mg/kg (adult mongrel dogs [2]; [7]) was 132% and the change in vivo at 1.87 mg/kg (adult mongrel dogs [2]; [8]) was 18%. It also gave a change in vivo at 1.87 mg/kg (adult mongrel dogs [2]; [9]) of 17% and a change in vivo at 1.87 mg/kg (adult mongrel dogs [2]; [10]) of 84%.
